According to PMC5353780, “A novel benzo-heterocyclic amine derivative N30 inhibits influenza virus replication by depression of Inosine-5’-Monophospate Dehydrogenase activity” (Virology Journal, 2017):
Where a name gives a salt, the structure may show the parent alone.

Key:
Assay in all cases: microbe, parasite or virus in culture
Details in all cases: for IC50: Influenza A virus, MDCK; for SI: TC50/IC50
A/tianjinjinnan/15/2009 = assay type: cell-based, Influenza A virus (H1N1, oseltamivir-resistant)
A/hunanzhuhui/1222/2010 = assay type: cell-based, Influenza A virus (H3N2, amantadine-resistant)
[1] = tested on: A/liaoningzhenxing/1109/2010; assay type: cell-based, Influenza A virus (H1N1, oseltamivir-resistant)
A/fujiantongan/196/2009 = assay type: cell-based, Influenza A virus (H3N2, amantadine-resistant)

## NC12CC3CC(CC(C3)C1)C2 [AH, amantadine hydrochloride]
A/tianjinjinnan/15/2009
  IC50: 18.2 ± 0.24 µM
A/hunanzhuhui/1222/2010
  IC50: 57.2 ± 2.23 µM
[1]
  IC50: 10.13 ± 0.04 µM
A/fujiantongan/196/2009
  IC50: 78.8 ± 3.04 µM

## O=[N+]([O-])c1ccc(CNc2ccc3ncsc3c2)cc1 [N30, N-(4-nitrophenylmethyl) benzothiazole-6-amine]
A/tianjinjinnan/15/2009
  IC50: 1.67 ± 0.49 µM
  SI: 39.92
A/hunanzhuhui/1222/2010
  IC50: 1.76 ± 0.24 µM
  SI: 37.89
[1]
  IC50: 3.43 ± 3.36 µM
  SI: 19.44
A/fujiantongan/196/2009
  IC50: 1.13 ± 0.43 µM
  SI: 59.00

## CCC(CC)O[C@@H]1C=C(C(=O)O)C[C@H](N)[C@H]1NC(C)=O [OC, oseltamivir carboxylate]
A/tianjinjinnan/15/2009
  IC50: 2.57 ± 0.1 µM
  SI: >19.45
A/hunanzhuhui/1222/2010
  IC50: 0.78 ± 0.02 µM
  SI: >64.10
[1]
  IC50: 3.2 ± 0.21 µM
  SI: >15.58
A/fujiantongan/196/2009
  IC50: 0.28 ± 0.01 µM
  SI: >178.57

## NC(=O)c1ncn([C@@H]2O[C@H](CO)[C@@H](O)[C@H]2O)n1 [RBV, Ribavirin]
A/tianjinjinnan/15/2009
  IC50: 2.54 ± 1.25 µM
[1]
  IC50: 4.92 ± 3.02 µM
A/fujiantongan/196/2009
  IC50: 4.42 ± 0.74 µM
